Experimental data from patent US10294234B2, “HIV inhibitor compounds” (priority 2017, dated 2019).
Like-named read-outs stand apart in the source and are kept apart here.

How the values were obtained:
[1] = In short: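 Depletion measured by LC/MS/MS at 2, 12, 25, 45 and 65 minutes after 1 uM compound was added to liver microsomes (0.5 mg/mL; dog, rat, human) with NADPH-regenerating cofactor, in duplicate. In vitro t1/2 converted to Clint.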
[2] = in vivo; conditions: rat, in vivo; for Vd / RAT PO F: male, SD; for Vd / RAT IV CL / RAT IV T1/2: iv; for RAT PO F: 2.5 mg/kg
Procedure: Each dosing group consisted of 3 male naïve SD Rats. At dosing, the animals weighed between 0.27 to 0.32 kg. The animals were fasted overnight prior to dose administration. The test article was administered by intravenous infusion over 30 min. The rate of infusion was adjusted according to the body weight of each animal to deliver a dose of 0.5 or 1.0 mg/kg. For the oral dosing group, the test article was administered to animals by oral gavage administration. Serial venous blood samples (approximately 0.30 mL each) were taken at predose and 0.25, 0.48, 0.58, 0.75, 1.5, 3, 6, 8, 12 and 24 hours post dose for the IV dosing group animals. Blood samples were taken at predose, 0.25, 0.50, 1, 2, 4, 6, 8, 12 and 24 hours post dose for the oral group animals. The blood samples were collected into Vacutainer™ tubes containing EDTA-K2 as the anti-coagulant and were immediately placed on wet ice pending centrifugation for plasma. An LC/MS/MS method was used to measure the concentration of test compound in plasma. Non-compartmental pharmacokinetic analysis was performed on the plasma concentration-time data.

[3] = 3H Human Predicted Clearance Assay (tritiated analogs); assay type: in vitro ADME; design: unit not given here
Procedure: 3H Human Predicted Clearance Assay:
For certain compounds, tritiated analogs (H^3) were prepared to further determined their human predicted clearance with increased resolution. Those studies were performed as described above using the tritiated analogs. Data from those compounds is found in Table 2 below and reported in FIG. 1 (note ATV and DRV were not tritiated).

[4] = tested on: HIV-1 (IIIB) in MT-4 cells; assay: MT-4 HIV assay; assay type: cell-based
In short: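 Antiviral activity was read by Cell Titer Glo after a 5-day, 37 °C culture of MT-4 cells pre-infected with a 1:250 dilution of HIV-1 (IIIB). Compounds were tested as threefold dilution series in complete RPMI. Controls were no drug, mock infection and 5 uM AZT.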

[5] = Human immunodeficiency virus 1, MT4, 120 h, HIV-1 (IIIB), MT-4 cells, 5 days, Cell Titer Glo, read-out: EC50
[6] = human liver microsomes 0.5 mg/mL, 1 uM compound, NADPH
[7] = rat liver microsomes 0.5 mg/mL, 1 uM compound, NADPH
[8] = tritiated analogs, human liver microsomes

| Molecule | Human Pred Cl. ([1]; human, microsomes) [L/H/kg] | Rat. Pred. Cl. ([1]; rat, microsomes) [L/H/kg] | Vd [2] [L/kg] | RAT PO F [2] [%] | RAT IV CL [2] [mL/min/kg] | RAT IV T1/2 [2] [h] | 3H Human Predicted Cl. ([3]; human, 1 uM) | EC50 [4, 5] [nM] | Dog. Pred. Cl. ([1]; microsomes) [L/H/kg] | Human Pred Cl. [1, 6] [L/H/kg] | Rat. Pred. Cl. [1, 7] [L/H/kg] | 3H Human Predicted Cl. [3, 8] | EC50 ([4]; Human immunodeficiency virus 1, MT4, 120 h) [nM] | EC50 ([4]; HIV-1 (IIIB), MT-4 cells, 5 days, Cell Titer Glo, read-out: EC50) [nM] |
| --- | --- | --- | --- | --- | --- | --- | --- | --- | --- | --- | --- | --- | --- | --- |
| COC(=O)N[C@H](C(=O)N[C@@H](Cc1ccc(C#Cc2cnc(N3CC4CCC(C3)N4C3COC3)nc2)cc1)[C@@H](O)CN(Cc1c(F)cc(-c2ccn(CC(F)F)n2)cc1F)NC(=O)[C@@H](NC(=O)OC)C(C)(C)C(F)(F)F)C(C)(C)C(F)(F)F [Example 36, Methyl ((5S,8S,9S,14S)-11-(4-(1-(2,2-difluoroethyl)-1H-pyrazol-3-yl)-2,6-difluorobenzyl)-16,16,16-trifluoro-9-hydroxy-15,15-dimethyl-8-(4-((2-(8-(oxetan-3-yl)-3,8-diazabicyclo[3.2.1]octan-3-yl)pyrimidin-5-yl)ethynyl)benzyl)-3,6,13-trioxo-5-(1,1,1-trifluoro-2-methylpropan-2-yl)-2-oxa-4,7,11,12-tetraazahexadecan-14-yl)carbamate] | <0.11 | 0.27 | 5.99 | 16.4 | 5.33 | 15.7 | 0.1 | 3.68 | – | – | – | – | – | – |
| COC(=O)N[C@H](C(=O)N[C@@H](Cc1ccc(C#Cc2ccc(N3CC4CCC(C3)N4C3COC3)nc2)cc1)[C@@H](O)CN(Cc1c(F)cc(-c2ccn(CC(F)F)n2)cc1F)NC(=O)[C@@H](NC(=O)OC)C(C)(C)C(F)(F)F)C(C)(C)C(F)(F)F [Example 46, Methyl ((5S,10S,11S,14S)-8-(4-(1-(2,2-difluoroethyl)-1H-pyrazol-3-yl)-2,6-difluorobenzyl)-16,16,16-trifluoro-10-hydroxy-15,15-dimethyl-11-(4-((6-(8-(oxetan-3-yl)-3,8-diazabicyclo[3.2.1]octan-3-yl)pyridin-3-yl)ethynyl)benzyl)-3,6,13-trioxo-5-(1,1,1-trifluoro-2-methylpropan-2-yl)-2-oxa-4,7,8,12-tetraazahexadecan-14-yl)carbamate] | <0.11 | 0.19 | 4.22 | 13 | 7.5 | 9.22 | 0.04 | 4.34 | 1.64 | – | – | – | – | – |
| COC(=O)N[C@H](C(=O)NN(Cc1c(F)cc(-c2ccn(C(F)F)n2)cc1F)C[C@H](O)[C@H](Cc1ccc(C#Cc2ccc(N3CC4CCC(C3)N4C3COC3)nc2)cc1)NC(=O)[C@@H](NC(=O)OC)C(C)(C)C(F)(F)F)C(C)(C)C [Example 73, Methyl ((5S,8S,9S,14S)-11-(4-(1-(difluoromethyl)-1H-pyrazol-3-yl)-2,6-difluorobenzyl)-9-hydroxy-15,15-dimethyl-8-(4-((6-(8-(oxetan-3-yl)-3,8-diazabicyclo[3.2.1]octan-3-yl)pyridin-3-yl)ethynyl)benzyl)-3,6,13-trioxo-5-(1,1,1-trifluoro-2-methylpropan-2-yl)-2-oxa-4,7,11,12-tetraazahexadecan-14-yl)carbamate] | 0.13 | <0.18 | 3.34 | 35 | 5.33 | 9.43 | 0.09 | 4.72 | – | – | – | – | – | – |
| COC(=O)N[C@H](C(=O)N[C@@H](Cc1ccc(C#Cc2cnc(N3CC4CCC(C3)N4C3COC3)nc2)cc1)[C@@H](O)CN(Cc1c(F)cc(-c2ncccn2)cc1F)NC(=O)[C@@H](NC(=O)OC)C(C)(C)C(F)(F)F)C(C)(C)C(F)(F)F [Example 89, Methyl ((5S,8S,9S,14S)-11-(2,6-difluoro-4-(pyrimidin-2-yl)benzyl)-16,16,16-trifluoro-9-hydroxy-15,15-dimethyl-8-(4-((2-(8-(oxetan-3-yl)-3,8-diazabicyclo[3.2.1]octan-3-yl)pyrimidin-5-yl)ethynyl)benzyl)-3,6,13-trioxo-5-(1,1,1-trifluoro-2-methylpropan-2-yl)-2-oxa-4,7,11,12-tetraazahexadecan-14-yl)carbamate] | <0.11 | <0.18 | 3.53 | 44.2 | 5 | 10.2 | 0.08 | 3.32 | 1.67 | – | – | – | – | – |
| COC(=O)N[C@H](C(=O)N[C@@H](Cc1ccc(C#Cc2ccc(N3C[C@H]4C[C@@H]3CN4C3COC3)nc2)cc1)[C@@H](O)CN(Cc1c(F)cc(-c2ccn(C(F)F)n2)cc1F)NC(=O)[C@@H](NC(=O)OC)C(C)(C)C(F)(F)F)C(C)(C)C(F)(F)F [Example 173, Methyl ((5S,8S,9S,14S)-11-(4-(1-(difluoromethyl)-1H-pyrazol-3-yl)-2,6-difluorobenzyl)-16,16,16-trifluoro-9-hydroxy-15,15-dimethyl-8-(4-((6-((1R,4R)-5-(oxetan-3-yl)-2,5-diazabicyclo[2.2.1]heptan-2-yl)pyridin-3-yl)ethynyl)benzyl)-3,6,13-trioxo-5-(1,1,1-trifluoro-2-methylpropan-2-yl)-2-oxa-4,7,11,12-tetraazahexadecan-14-yl)carbamate] | – | – | – | – | – | – | – | – | – | <0.11 | 1.2 | 0.14 | 2.55 | – |
| COC(=O)N[C@H](C(=O)N[C@@H](Cc1ccc(C#Cc2ccc(N3CC4CC(C3)N4C3COC3)nc2)cc1)[C@@H](O)CN(Cc1c(F)cc(-c2ccn(C(F)F)n2)cc1F)NC(=O)[C@@H](NC(=O)OC)C(C)(C)C(F)(F)F)C(C)(C)C(F)(F)F [Example 176, Methyl ((5S,8S,9S,14S)-11-(4-(1-(difluoromethyl)-1H-pyrazol-3-yl)-2,6-difluorobenzyl)-16,16,16-trifluoro-9-hydroxy-15,15-dimethyl-8-(4-((6-(6-(oxetan-3-yl)-3,6-diazabicyclo[3.1.1]heptan-3-yl)pyridin-3-yl)ethynyl)benzyl)-3,6,13-trioxo-5-(1,1,1-trifluoro-2-methylpropan-2-yl)-2-oxa-4,7,11,12-tetraazahexadecan-14-yl)carbamate] | <0.11 | 0.75 | – | – | – | – | 0.09 | 3.36 | – | – | – | – | – | – |
| COC(=O)N[C@H](C(=O)N[C@@H](Cc1ccc(-c2ccc(N3CC4CCC(C3)N4C3COC3)nc2)cc1)[C@@H](O)CN(Cc1c(F)cc(-c2ccn(C(F)F)n2)cc1F)NC(=O)[C@@H](NC(=O)OC)C(C)(C)C(F)(F)F)C(C)(C)C(F)(F)F [Example 208, Methyl ((5S,8S,9S,14S)-11-(4-(1-(difluoromethyl)-1H-pyrazol-3-yl)-2,6-difluorobenzyl)-16,16,16-trifluoro-9-hydroxy-15,15-dimethyl-8-(4-(6-(8-(oxetan-3-yl)-3,8-diazabicyclo[3.2.1]octan-3-yl)pyridin-3-yl)benzyl)-3,6,13-trioxo-5-(1,1,1-trifluoro-2-methylpropan-2-yl)-2-oxa-4,7,11,12-tetraazahexadecan-14-yl)carbamate] | 0.16 | 0.74 | – | – | – | – | 0.11 | 2.51 | – | – | – | – | – | – |
| Methyl ((5S,8S,9S,14S)-11-(4-(1-(difluoromethyl)-1H-pyrazol-3-yl)-2,6-difluorobenzyl)-16,16,16-trifluoro-9-hydroxy-15,15-dimethyl-8-(4-((6-(4-(oxetan-3-yl)piperazin-1-yl)pyridin-3-yl)ethynyl)benzyl)-3,6,3-trioxo-5-(1,1,1-trifluoro-2-methylpropan-2-yl)-2-oxa-4,7,11,12-tetraazahexadecan-14-yl)carbamate [Example 112] | – | – | – | – | – | – | – | – | – | <0.11 | 0.32 | 0.11 | – | 4.45 |
